The subject of assay [1] is M109. Kind of assay: Cytotoxicity against mouse M109 cells after 72 hrs by XTT assay. In kind it is functional, cell-based. The settings on record: M109, 72 h.
Assay [2] can be described thus: Inhibition of HCMV protease. Further details: species or system Human betaherpesvirus 5.

Molecules are shown by their SMILES.

For orientation: IC50 means the concentration that inhibits the measured activity by half. Low readings indicate higher potency, high ones lower potency. As to `CC(C)C1O/C(=C2/C(=O)NC(CC(N)=O)C2=O)C=CC1C` (configuration not stated) [BRIPIODIONEN], the IC50 amounted to 34 µM in assay [1] and 30 µM in assay [2].

(Values after ChEMBL document CHEMBL1146433, “Bripiodionen, a new inhibitor of human cytomegalovirus protease from Streptomyces sp. WC76599” (J Nat Prod, 1997).)
